Reference: US8309760B2, “Process for purification of aryl carboxylic acids” (University of Alabama, priority 2007, dated 2012)
Like-named read-outs stand apart in the source and are kept apart here.

Tests used:
[1] = cited from earlier work
[2] = type: physicochemical
Protocol: Examples illustrating the dissolution and aqueous reconstitution of terephthalic acid from ionic liquids follow the same general experimental protocol. However, it should be noted that the ionic liquids chosen are by far non-limiting examples of terephthalic acid dissolution in ionic liquids. To a vial containing 100 mg of an ionic liquid is added 10 mg of terephthalic acid and the mixture is heated to 75° C. to reduce the viscosity of the resulting liquid. The solution is stirred on a hot plate in an oil bath for 24 hours, whereupon the solutions are visually checked for dissolution. Aqueous reconstitution of the terephthalic acid is achieved by the addition of 500 mL deionized water (polished to 18.1-18.3 MΩ cm). Crystalline terephthalic acid separates from the ionic liquid as a flock, washed with copious amounts of deionized water and vacuum filtered, then dried in ambient conditions and ground with a spatula to give the desired crystalline terephthalic acid.

solubility in various ionic liquids [2] | SMILES | solubility in water ([1]; no temperature given) | solubility of terephthalic acid in water ([1]; temperature of about 300° C.) | solubility in water ([1]; temperatures below about 200° C.)
 | O=Cc1ccc(C(=O)O)cc1 [4-Carboxybenzaldehyde, 4-carboxybenzaldehyde] | soluble |  | 
soluble | O=C(O)c1ccc(C(=O)O)cc1 [terephthalic acid] |  | about 40% | insoluble
